Consider 2 substances from article PMC5065007 (Journal of the American Chemical Society, 2016).

As usually defined, the IC50 is the concentration that gives 50% inhibition. For orientation: Kd means a measure of binding affinity in units of concentration.

This test concerns the target δPKC (Homo sapiens, UniProt Q05655). Put plainly: AGILE label-free binding assay, δPKC to immobilized peptide.

Where no end group is shown, it is not given here.

δPKC, sequence (Q05655 whole entry): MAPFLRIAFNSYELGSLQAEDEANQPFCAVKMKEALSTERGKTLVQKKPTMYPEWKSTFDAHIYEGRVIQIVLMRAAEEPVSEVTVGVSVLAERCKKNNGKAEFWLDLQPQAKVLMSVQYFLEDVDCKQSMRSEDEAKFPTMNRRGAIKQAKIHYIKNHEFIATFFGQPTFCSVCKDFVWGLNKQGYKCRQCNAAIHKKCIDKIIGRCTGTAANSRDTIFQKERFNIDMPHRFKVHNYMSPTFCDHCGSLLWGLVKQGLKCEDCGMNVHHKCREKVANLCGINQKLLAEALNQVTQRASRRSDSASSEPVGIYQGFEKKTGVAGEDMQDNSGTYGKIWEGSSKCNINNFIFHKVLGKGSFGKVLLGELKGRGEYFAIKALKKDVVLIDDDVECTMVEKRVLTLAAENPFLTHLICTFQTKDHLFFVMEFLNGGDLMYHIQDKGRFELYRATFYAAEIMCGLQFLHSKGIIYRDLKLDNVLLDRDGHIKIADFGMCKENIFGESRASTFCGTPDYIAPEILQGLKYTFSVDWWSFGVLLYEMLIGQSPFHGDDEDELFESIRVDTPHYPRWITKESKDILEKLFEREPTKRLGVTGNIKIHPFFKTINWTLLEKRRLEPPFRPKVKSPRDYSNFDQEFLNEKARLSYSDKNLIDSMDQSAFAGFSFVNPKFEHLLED

Substance ALSTER [ψPDK] returned a half-inhibitory concentration (IC50) of 53 nM and a dissociation constant (Kd) of 53 ± 19 nM.
Turning to ALSAER [ψPDK analog], the IC50 was 1250 nM and the Kd was 1250 nM.
